# Experimental data taken from patent US4115541A (priority 1975, dated 1978).
# Tests used:
# [1] = Distribution of 99mTc-Sn-AEDP and 85Sr in rabbits, carrier effect of AEDP (Example 4); assay type: in vivo, rabbit; conditions: 2 Hrs.
# Experimental: Adult New Zealand albino rabbits having an average weight of 3.8 kg were utilized. Strontium-85 was employed as a standard for comparison. […] Each dosage is contained in a volume of 1 ml.
# The animals were sacrificed serially from 1 to 24 hours after injection and the activities in major organs were determined by counting multiple samples from each organ in a scintillation well counter (the technetium-99m counts were corrected for the Compton contributions from the strontium-85 activity in the technetium-99m energy window). Multiple samples were counted from the tibia, femur, spine and pelvic bones; the total activity in the skeleton was estimated by assuming the whole skeleton consisted of equal proportions by weight of tibia, spine, femur and pelvis and that the skeletal mass was 10% of the body weight. The red marrow was sampled from the femur and the total marrow was assumed to be 2.2% of the total body weight. Similarly, blood volume was assumed to be 7% and the skeletal muscle 43% of the body weight. The whole liver and both kidneys were weighed and multiple samples from each were counted to measure the total activity in each organ.
# In another series of experiments carried out as described in Example 2, the distribution of technetium 99m from its 99m-technetium-tin-methylene diphosphonate complex was determined in albino rabbits, again in comparison with strontium-85.
# The distribution of technetium 99m from its 99m technetium-tin-1-amino-ethane-1,1-diphosphonate complex was determined as in Example 3 and compared with the distribution of strontium-85.
# [2] = physical; cited from earlier work
molecule,measurement,setting,value
"99m technetium-tin-1-amino-ethane-1,1-diphosphonate complex [^99m Tc-Sn-AEDP]","Blood, % Dose in Whole Organ",[1]; AEDP 0.01 mg/kg,1.18 % Dose
same,"Blood, % dose/1% body weight",[1]; AEDP 0.01 mg/kg,0.168 % Dose/1% Body weight
same,"Bone Ave, % Dose/1% Body weight",[1]; AEDP 0.01 mg/kg,7.60 % Dose/1% Body weight
same,"Femur, % dose/1% body weight",[1]; AEDP 0.01 mg/kg,7.54 % Dose/1% Body weight
same,"Kidneys, % Dose in Whole Organ",[1]; AEDP 0.01 mg/kg,1.59 % Dose
same,"Kidneys, % dose/1% body weight",[1]; AEDP 0.01 mg/kg,2.72 % Dose/1% Body weight
same,"Liver, % Dose in Whole Organ",[1]; AEDP 0.01 mg/kg,1.69 % Dose
same,"Liver, % dose/1% body weight",[1]; AEDP 0.01 mg/kg,0.617 % Dose/1% Body weight
same,"Marrow, % Dose in Whole Organ",[1]; AEDP 0.01 mg/kg,0.657 % Dose
same,"Marrow, % dose/1% body weight",[1]; AEDP 0.01 mg/kg,0.300 % Dose/1% Body weight
same,"Muscle, % Dose in Whole Organ",[1]; AEDP 0.01 mg/kg,0.988 % Dose
same,"Muscle, % dose/1% body weight",[1]; AEDP 0.01 mg/kg,0.037 % Dose/1% Body weight
same,"Pelvis, % dose/1% body weight",[1]; AEDP 0.01 mg/kg,8.53 % Dose/1% Body weight
same,"Ratio of 99mTc/85Sr, Ave Bone",[1]; AEDP 0.01 mg/kg,0.735
same,"Ratio of 99mTc/85Sr, Blood",[1]; AEDP 0.01 mg/kg,0.406
same,"Ratio of 99mTc/85Sr, Femur",[1]; AEDP 0.01 mg/kg,0.720
same,"Ratio of 99mTc/85Sr, Kidney",[1]; AEDP 0.01 mg/kg,4.99
same,"Ratio of 99mTc/85Sr, Liver",[1]; AEDP 0.01 mg/kg,3.00
same,"Ratio of 99mTc/85Sr, Marrow",[1]; AEDP 0.01 mg/kg,1.27
same,"Ratio of 99mTc/85Sr, Muscle",[1]; AEDP 0.01 mg/kg,0.338
same,"Ratio of 99mTc/85Sr, Pelvis",[1]; AEDP 0.01 mg/kg,0.794
same,"Ratio of 99mTc/85Sr, Spine",[1]; AEDP 0.01 mg/kg,0.689
same,"Ratio of 99mTc/85Sr, Tibia",[1]; AEDP 0.01 mg/kg,0.710
same,"Spine, % dose/1% body weight",[1]; AEDP 0.01 mg/kg,6.20 % Dose/1% Body weight
same,Tc/Sr ratio (Table 4),[1]; AEDP 0.01 mg/kg,0.736
same,"Tibia, % dose/1% body weight",[1]; AEDP 0.01 mg/kg,8.13 % Dose/1% Body weight
same,"Urine, % Dose",[1]; AEDP 0.01 mg/kg,48.39 % Dose
same,"W. Femur, % Dose in Whole Organ",[1]; AEDP 0.01 mg/kg,2.34 % Dose
same,"W. Tibia, % Dose in Whole Organ",[1]; AEDP 0.01 mg/kg,1.96 % Dose
same,"Blood, % Dose in Whole Organ",[1]; AEDP 0.05 mg/kg,1.01 % Dose
same,"Blood, % dose/1% body weight",[1]; AEDP 0.05 mg/kg,0.144 % Dose/1% Body weight
same,"Bone Ave, % Dose/1% Body weight",[1]; AEDP 0.05 mg/kg,8.39 % Dose/1% Body weight
same,"Femur, % dose/1% body weight",[1]; AEDP 0.05 mg/kg,8.63 % Dose/1% Body weight
same,"Kidneys, % Dose in Whole Organ",[1]; AEDP 0.05 mg/kg,1.13 % Dose
same,"Kidneys, % dose/1% body weight",[1]; AEDP 0.05 mg/kg,1.83 % Dose/1% Body weight
same,"Liver, % Dose in Whole Organ",[1]; AEDP 0.05 mg/kg,0.806 % Dose
same,"Liver, % dose/1% body weight",[1]; AEDP 0.05 mg/kg,0.176 % Dose/1% Body weight
same,"Marrow, % Dose in Whole Organ",[1]; AEDP 0.05 mg/kg,0.549 % Dose
same,"Marrow, % dose/1% body weight",[1]; AEDP 0.05 mg/kg,0.250 % Dose/1% Body weight
same,"Muscle, % Dose in Whole Organ",[1]; AEDP 0.05 mg/kg,1.20 % Dose
same,"Muscle, % dose/1% body weight",[1]; AEDP 0.05 mg/kg,0.028 % Dose/1% Body weight
same,"Pelvis, % dose/1% body weight",[1]; AEDP 0.05 mg/kg,7.82 % Dose/1% Body weight
same,"Ratio of 99mTc/85Sr, Ave Bone",[1]; AEDP 0.05 mg/kg,0.683
same,"Ratio of 99mTc/85Sr, Blood",[1]; AEDP 0.05 mg/kg,0.409
same,"Ratio of 99mTc/85Sr, Femur",[1]; AEDP 0.05 mg/kg,0.687
same,"Ratio of 99mTc/85Sr, Kidney",[1]; AEDP 0.05 mg/kg,3.30
same,"Ratio of 99mTc/85Sr, Liver",[1]; AEDP 0.05 mg/kg,1.32
same,"Ratio of 99mTc/85Sr, Marrow",[1]; AEDP 0.05 mg/kg,1.18
same,"Ratio of 99mTc/85Sr, Muscle",[1]; AEDP 0.05 mg/kg,0.236
same,"Ratio of 99mTc/85Sr, Pelvis",[1]; AEDP 0.05 mg/kg,0.684
same,"Ratio of 99mTc/85Sr, Spine",[1]; AEDP 0.05 mg/kg,0.675
same,"Ratio of 99mTc/85Sr, Tibia",[1]; AEDP 0.05 mg/kg,0.681
same,"Spine, % dose/1% body weight",[1]; AEDP 0.05 mg/kg,7.80 % Dose/1% Body weight
same,Tc/Sr ratio (Table 4),[1]; AEDP 0.05 mg/kg,0.680
same,"Tibia, % dose/1% body weight",[1]; AEDP 0.05 mg/kg,9.30 % Dose/1% Body weight
same,"Urine, % Dose",[1]; AEDP 0.05 mg/kg,44.21 % Dose
same,"W. Femur, % Dose in Whole Organ",[1]; AEDP 0.05 mg/kg,2.41 % Dose
same,"W. Tibia, % Dose in Whole Organ",[1]; AEDP 0.05 mg/kg,2.14 % Dose
same,"Blood, % Dose in Whole Organ",[1]; AEDP 0.1 mg/kg,0.96 % Dose
same,"Blood, % dose/1% body weight",[1]; AEDP 0.1 mg/kg,0.137 % Dose/1% Body weight
same,"Bone Ave, % Dose/1% Body weight",[1]; AEDP 0.1 mg/kg,7.51 % Dose/1% Body weight
same,"Femur, % dose/1% body weight",[1]; AEDP 0.1 mg/kg,7.93 % Dose/1% Body weight
same,"Kidneys, % Dose in Whole Organ",[1]; AEDP 0.1 mg/kg,0.913 % Dose
same,"Kidneys, % dose/1% body weight",[1]; AEDP 0.1 mg/kg,1.28 % Dose/1% Body weight
same,"Liver, % Dose in Whole Organ",[1]; AEDP 0.1 mg/kg,0.309 % Dose
same,"Liver, % dose/1% body weight",[1]; AEDP 0.1 mg/kg,0.083 % Dose/1% Body weight
same,"Marrow, % Dose in Whole Organ",[1]; AEDP 0.1 mg/kg,0.211 % Dose
same,"Marrow, % dose/1% body weight",[1]; AEDP 0.1 mg/kg,0.096 % Dose/1% Body weight
same,"Muscle, % Dose in Whole Organ",[1]; AEDP 0.1 mg/kg,1.46 % Dose
same,"Muscle, % dose/1% body weight",[1]; AEDP 0.1 mg/kg,0.034 % Dose/1% Body weight
same,"Pelvis, % dose/1% body weight",[1]; AEDP 0.1 mg/kg,6.24 % Dose/1% Body weight
same,"Ratio of 99mTc/85Sr, Ave Bone",[1]; AEDP 0.1 mg/kg,0.716
same,"Ratio of 99mTc/85Sr, Blood",[1]; AEDP 0.1 mg/kg,0.409
same,"Ratio of 99mTc/85Sr, Femur",[1]; AEDP 0.1 mg/kg,0.714
same,"Ratio of 99mTc/85Sr, Kidney",[1]; AEDP 0.1 mg/kg,2.94
same,"Ratio of 99mTc/85Sr, Liver",[1]; AEDP 0.1 mg/kg,0.490
same,"Ratio of 99mTc/85Sr, Marrow",[1]; AEDP 0.1 mg/kg,0.621
same,"Ratio of 99mTc/85Sr, Muscle",[1]; AEDP 0.1 mg/kg,0.205
same,"Ratio of 99mTc/85Sr, Pelvis",[1]; AEDP 0.1 mg/kg,0.725
same,"Ratio of 99mTc/85Sr, Spine",[1]; AEDP 0.1 mg/kg,0.705
same,"Ratio of 99mTc/85Sr, Tibia",[1]; AEDP 0.1 mg/kg,0.721
same,"Spine, % dose/1% body weight",[1]; AEDP 0.1 mg/kg,7.36 % Dose/1% Body weight
same,Tc/Sr ratio (Table 4),[1]; AEDP 0.1 mg/kg,0.717
same,"Tibia, % dose/1% body weight",[1]; AEDP 0.1 mg/kg,8.50 % Dose/1% Body weight
same,"Urine, % Dose",[1]; AEDP 0.1 mg/kg,38.8 % Dose
same,"W. Femur, % Dose in Whole Organ",[1]; AEDP 0.1 mg/kg,2.38 % Dose
same,"W. Tibia, % Dose in Whole Organ",[1]; AEDP 0.1 mg/kg,2.18 % Dose
same,"Blood, % Dose in Whole Organ",[1]; AEDP 0.5 mg/kg,1.38 % Dose
same,"Blood, % dose/1% body weight",[1]; AEDP 0.5 mg/kg,0.197 % Dose/1% Body weight
same,"Bone Ave, % Dose/1% Body weight",[1]; AEDP 0.5 mg/kg,6.96 % Dose/1% Body weight
same,"Femur, % dose/1% body weight",[1]; AEDP 0.5 mg/kg,6.59 % Dose/1% Body weight
same,"Kidneys, % Dose in Whole Organ",[1]; AEDP 0.5 mg/kg,1.11 % Dose
same,"Kidneys, % dose/1% body weight",[1]; AEDP 0.5 mg/kg,2.11 % Dose/1% Body weight
same,"Liver, % Dose in Whole Organ",[1]; AEDP 0.5 mg/kg,0.216 % Dose
same,"Liver, % dose/1% body weight",[1]; AEDP 0.5 mg/kg,0.079 % Dose/1% Body weight
same,"Marrow, % Dose in Whole Organ",[1]; AEDP 0.5 mg/kg,0.23 % Dose
same,"Marrow, % dose/1% body weight",[1]; AEDP 0.5 mg/kg,0.104 % Dose/1% Body weight
same,"Muscle, % Dose in Whole Organ",[1]; AEDP 0.5 mg/kg,0.883 % Dose
same,"Muscle, % dose/1% body weight",[1]; AEDP 0.5 mg/kg,0.021 % Dose/1% Body weight
same,"Pelvis, % dose/1% body weight",[1]; AEDP 0.5 mg/kg,7.93 % Dose/1% Body weight
same,"Ratio of 99mTc/85Sr, Ave Bone",[1]; AEDP 0.5 mg/kg,0.644
same,"Ratio of 99mTc/85Sr, Blood",[1]; AEDP 0.5 mg/kg,0.280
same,"Ratio of 99mTc/85Sr, Femur",[1]; AEDP 0.5 mg/kg,0.628
same,"Ratio of 99mTc/85Sr, Kidney",[1]; AEDP 0.5 mg/kg,2.47
same,"Ratio of 99mTc/85Sr, Liver",[1]; AEDP 0.5 mg/kg,0.459
same,"Ratio of 99mTc/85Sr, Marrow",[1]; AEDP 0.5 mg/kg,0.500
same,"Ratio of 99mTc/85Sr, Muscle",[1]; AEDP 0.5 mg/kg,0.140
same,"Ratio of 99mTc/85Sr, Pelvis",[1]; AEDP 0.5 mg/kg,0.692
same,"Ratio of 99mTc/85Sr, Spine",[1]; AEDP 0.5 mg/kg,0.614
same,"Ratio of 99mTc/85Sr, Tibia",[1]; AEDP 0.5 mg/kg,0.632
same,"Spine, % dose/1% body weight",[1]; AEDP 0.5 mg/kg,6.05 % Dose/1% Body weight
same,Tc/Sr ratio (Table 4),[1]; AEDP 0.5 mg/kg,0.645
same,"Tibia, % dose/1% body weight",[1]; AEDP 0.5 mg/kg,7.27 % Dose/1% Body weight
same,"Urine, % Dose",[1]; AEDP 0.5 mg/kg,48.85 % Dose
same,"W. Femur, % Dose in Whole Organ",[1]; AEDP 0.5 mg/kg,1.74 % Dose
same,"W. Tibia, % Dose in Whole Organ",[1]; AEDP 0.5 mg/kg,1.55 % Dose
[99Tc] [technitium-99m],half-life (radionuclide),[2],6 h
